Data: PMC5603512, “Discovery, Semisynthesis, Antiparasitic and Cytotoxic Evaluation of 14-Membered Resorcylic Acid Lactones and Their Derivatives” (Scientific Reports, 2017)

Assays:
[1] = Cytotoxicity MTT assay, K562; details: human
Procedure: (§1) All of the compounds were also evaluated for their cytotoxic properties against six human cancer cell lines (lung carcinoma epithelian (A549), colon carcinoma (HCT-116), pancreatic carcinoma (BXPC-3), breast cancer (MCF-7), cervical epithelium (HeLa), and erythroleukemic (K562)) and a human umbilical vein endothelial cell (HUVEC) line (Table 2).
(§2) The cytotoxicity against HCT-116, BXPC-3, HeLa, MCF-7, A-549, and HUVEC cell lines was evaluated using the SRB method. The cytotoxicity against K562 and Vero cell lines was evaluated using the MTT method. Adriamycin was used as a positive control. All cells were cultivated in T-75 flasks containing 10% Fetal Bovine Serum (FBS), Dulbeco’s Modified Eagle Medium (DMEM) with 2 mM L-glutamine, and 1% penicillin-streptomycin at 37 °C in a humidified atmosphere with 5% CO2. For SRB assay, cells in their log phase of growth were seeded into 96 well micro plates (4 × 10^4 cells per well) and followed by treating with test samples at 10 μM or DMSO. After incubation at 37 °C for 72 h, the cells were fixed with the cold 20% (w/v) TCA for 2 h and stained with Sulforhodamine B (SRB) dye for 0.5 h. The protein-bound dye is dissolved in Tris base solution for OD determination at 540 nm on an ELISA Plate Reader. For MTT assay, cells (5 × 10^3 cells per well) were plated in 96 well micro plates. After cell attachment overnight, new medium containing test compounds or DMSO was added. The plate was incubated for 48 h at 37 °C and incubated with 3-(4,5-dimethylthiazol-2-yl)-2,5-diphenyltetrazolium bromide (MTT) for additional 2–4 hours. The assay plate was then read at 490 nm on an ELISA Plate Reader. The data were obtained from experiments carried out in triplicate.

[2] = Cytotoxicity against the panel of six human cancer cell lines and HUVEC
Procedure: as §1, §2

[3] = Cytotoxicity SRB assay, HCT-116; details: human
Procedure: as §1, §2

Plasmodium falciparum = experiment: Antiplasmodial assay (PicoGreen growth inhibition in infected human erythrocytes); type: cell-based; details: Erythrocyte, in vitro, W2 and 3D7 strains cultured, strain of the values not stated, read-out: Plasmodium falciparum IC50
Procedure: Activity against the causative agent of malaria was performed by culturing human erythrocytes and infecting them with P. falciparum, as described by Trager and Jensen[36]. Briefly, the W2 (Chloroquine resistant) and 3D7 (Chloroquine sensitive) strains of P. falciparum were cultured in RPMI 1640 medium (Sigma-Aldrich, USA) supplemented with 10% human serum (from O+ blood) at a hematocrit of 2% erythrocytes (O+) at 37 °C in a gas mixture of 5% CO2, 5% O2, and 90% N2. Parasites were synchronized by a temperature cycling technique as described by Almanza et al.[37]

[4] = Cytotoxicity SRB assay, A-549; details: human
Procedure: as §1, §2

Trypanosoma cruzi = experiment: Antitrypanosomal assay (beta-galactosidase reporter, intracellular amastigotes in Vero cells); type: cell-based; details: Tulahuen clone C4, intracellular amastigotes in Vero cells, 120 h; for IC50: Trypanosoma cruzi, read-out: Trypanosoma cruzi IC50; for all read-outs here: key: I: Inactive
Procedure: Briefly, the expression of the reporter gene for beta-galactosidase (β-Gal) in the Tulahuen clone C4 of T. cruzi is assessed by colorimetry at 570 nm, which correlates with the parasite growth. Assays were performed on the intracellular amastigote form of the parasite infecting African green monkey kidney (Vero) cells, incubated for 120 h at 37 °C with 5% CO2.

Leishmania donovani = experiment: Antileishmanial assay (PicoGreen); type: cell-based; details: in vitro, read-out: Leishmania donovani IC50
Procedure: The anti-leishmania activity was evaluated following the protocol described by Calderon et al.[39], using the fluorescent DNA intercalator PicoGreen (Invitrogen, USA). The species responsible for visceral leishmaniasis, L. donovani, was used for the assays.

[5] = Cytotoxicity SRB assay, HeLa; details: human
Procedure: as §1, §2

[6] = Cytotoxicity SRB assay, BXPC-3; details: human
Procedure: as §1, §2

[7] = Cytotoxicity SRB assay, MCF-7; details: human
Procedure: as §1, §2

[8] = Chemical stability / interconversion in solvents; type: physicochemical; details: MeOH, EtOH, MeOH-d4 (except H2O), stationary state, within a week
Procedure: Compounds 1–6 and 11–27 were designed and synthesized through one or two-step semisynthetic reaction with high yields ranging from 65–95% from 7 and 8 (Fig. 1). The structures of new derivatives 12, 14–19, 21–22, 24, and 27 were identified by extensive spectroscopic methods including HRESIMS, ^1H NMR, and ^13C NMR. Compound 1 was prepared in yield of 95% through one-step acetonide reaction from 8. Other acetonide derivatives (11, 17, 18, 20, 23, 25, and 26) were also prepared with the same yields. Chlorination of compound 8 with sulfuryl chloride[33] followed by selective reduction with 10% Pd-C under H2 atmosphere led to the natural compound 2 (68%, yield). Acylation reaction was carried out by reaction of anhydride with the corresponding materials (1–3, and 6–8) in high yields (85–95%). In order to prepare 6, oxidation of the allyl alcohol 8 was examined under various oxidation conditions (PCC, PDC, MnO2, DMP, and IBX). However, only DMP and IBX enabled the selective oxidation of the allyl alcohol to give 6 in 65% and 35% yields, respectively (Fig. 3). […] Compounds 3–6 are diastereomers differing from each other by the absolute configurations of the 4′, 5′-diol chiral centers. The proportions of compounds 3–6 were in dynamic equilibrium, and the final ratios of 3–6 were approximately 8: 2: 5: 6 (Fig. 4). […]

[9] = Cytotoxicity SRB assay, HUVEC; details: human
Procedure: as §1, §2

[10] = Toxicity against Vero cells (MTT); type: cell-based, African green monkey; details: African green monkey, MTT, 48 h
Procedure: (§3) It should be emphasized that toxicity is a major concern of drug discovery and development. The above active compounds were evaluated for in vitro toxicity against a mammalian kidney cell line (Vero). The selectivity index (SI) was used as the evaluation parameter of drug potential of the test samples by comparing the toxicity on the Vero cell line (CC50) and the selective inhibitory effect on P. falciparum, L. donovani or T. cruzi (IC50) calculated here as CC50/IC50.
(§4) Adriamycin was used as a positive control.

Vero cells = experiment: Toxicity against Vero cells (MTT); type: cell-based, African green monkey; details: in vitro toxicity against mammalian kidney cell line (Vero)
Procedure: as §3, §4

P. falciparum lines Dd2 = details: line Dd2; read-out: IC50 against P. falciparum line Dd2; cited from earlier work
P. falciparum lines 3D7 = system: P. falciparum lines 3D7; set-up: method as in PMID 20429578, PMID 20429578; details: line 3D7; read-out: IC50 against P. falciparum line 3D7; cited from earlier work
[11] = BXPC-3 pancreatic carcinoma cells
[12] = HUVEC (umbilical vein endothelial cells)
[13] = Vero cells (mammalian kidney cell line)

Structure (SMILES)	IC50 at 48 h ([1]; K562 erythroleukemic cells) [µM]	IC50 [2] [µM]	IC50 at 72 h ([3]; HCT-116 colon carcinoma cells) [µM]	IC50 (Plasmodium falciparum) [µM]	IC50 at 72 h ([4]; A-549 lung carcinoma cells) [µM]	IC50 (Leishmania donovani) [µM]	IC50 at 72 h ([5]; HeLa cervical epithelium cells) [µM]	IC50 at 72 h [6, 11] [µM]	IC50 at 72 h ([7]; MCF-7 breast cancer cells) [µM]	IC50 at 72 h [9, 12] [µM]	CC50 at 48 h [10, 13] [µM]	other results
COc1cc(O)c2c(c1)/C=C/C[C@@H](O)[C@H](O)C(=O)/C=C/C[C@H](C)OC2=O [Compound 3]	> 10	< 10	> 10	> 30.7	> 10	9.11	7.18	> 10	> 10	–	–	Trypanosoma cruzi IC50 (Trypanosoma cruzi): I; Stability in protic solvents [8]: quite stable
COc1cc(O)c2c(c1)/C=C/C[C@H](O)[C@H](O)C(=O)/C=C/C[C@H](C)OC2=O [Compound 6]	> 10	< 10	> 10	14.9	> 10	1.93	> 10	8.47	> 10	8.59	3.2	Stability in protic solvents [8]: subtle chemical conversion of 6 to 3–5
COc1cc(O)c2c(c1)/C=C/C[C@H](O)[C@H](O)C(=O)/C=C\C[C@H](C)OC2=O [Compound 7]	> 10	< 10	1.09	11	> 10	2.21	> 10	5.07	> 10	> 10	< 1	–
COc1cc2c(c(OC(C)=O)c1)C(=O)O[C@@H](C)C/C=C/[C@@H]1OC(C)(C)O[C@H]1[C@@H](OC(C)=O)C/C=C/2 [Compound 11]	> 10	–	> 10	1.84	> 10	9.22	> 10	> 10	> 10	> 10	339	IC50 (Trypanosoma cruzi): 11.9 µM; Toxicity (in words) (Vero cells): non-toxic
COc1cc(O)c2c(c1)/C=C/C[C@H](OC(C)=O)[C@H](OC(C)=O)[C@@H](OC(C)=O)/C=C/C[C@H](C)OC2=O [Compound 12]	> 10	–	> 10	8.36	> 10	15.7	> 10	> 10	> 10	> 10	1520	IC50 (Trypanosoma cruzi): 17.2 µM; Toxicity (in words) (Vero cells): non-toxic
COc1cc2c(c(OC(C)=O)c1)C(=O)O[C@@H](C)C/C=C/[C@H](OC(C)=O)[C@@H](OC(C)=O)[C@@H](OC(C)=O)C/C=C/2 [Compound 13]	> 10	–	> 10	6.95	> 10	> 15.7	> 10	> 10	> 10	> 10	427	Trypanosoma cruzi IC50 (Trypanosoma cruzi): I; Toxicity (in words) (Vero cells): non-toxic
COc1cc2c(c(OC(=O)c3ccco3)c1)C(=O)O[C@@H](C)C/C=C/[C@H](OC(=O)c1ccco1)[C@@H](OC(=O)c1ccco1)[C@@H](OC(=O)c1ccco1)C/C=C/2 [Compound 15]	–	–	–	22.2	–	> 15.7	–	–	–	–	1570	Trypanosoma cruzi IC50 (Trypanosoma cruzi): I; Toxicity (in words) (Vero cells): non-toxic
COc1cc(O)c2c(c1)/C=C/C[C@@H]1OC(C)(C)O[C@@H]1C(=O)/C=C/C[C@H](C)OC2=O [Compound 20]	–	< 10	–	> 30.7	–	6.46	–	–	–	–	–	IC50 at 48 h [1]: > 10 µM; IC50 at 72 h [3]: > 10 µM; IC50 at 72 h [4]: > 10 µM; IC50 at 72 h [9]: 9.78 µM; IC50 at 72 h [5]: 7.21 µM; CC50 at 48 h [10]: < 1 µM; IC50 at 72 h [6]: > 10 µM; IC50 at 72 h [7]: > 10 µM
COc1cc2c(c(OC(C)=O)c1)C(=O)O[C@@H](C)C/C=C/C(=O)[C@@H](OC(C)=O)[C@@H](OC(C)=O)C/C=C/2 [Compound 21]	> 10	< 10	> 10	> 30.7	> 10	3.69	6.95	> 10	> 10	4.52	5.8	–
COc1cc(O)c2c(c1)/C=C/C[C@H]1OC(C)(C)O[C@@H]1C(=O)/C=C/C[C@H](C)OC2=O [Compound 23]	–	< 10	–	> 30.7	–	> 15.7	–	–	–	–	–	IC50 at 72 h [3]: 3.51 µM; IC50 at 72 h [4]: 9.75 µM; Trypanosoma cruzi IC50 (Trypanosoma cruzi): I; IC50 at 72 h [9]: 7.51 µM; IC50 at 72 h [5]: 6.59 µM
COc1cc(O)c2c(c1)C=CCC1OC(C)(C)OC1C(=O)C=CCC(C)OC2=O (centres unmarked) [Compound 26]	–	< 10	–	8.95	–	1.24	–	–	–	–	–	IC50 at 48 h [1]: > 10 µM; IC50 at 72 h [3]: 9.16 µM; IC50 at 72 h [4]: > 10 µM; IC50 at 72 h [9]: 4.81 µM; IC50 at 72 h [5]: 4.02 µM; CC50 at 48 h [10]: < 1 µM; IC50 at 72 h [6]: 7.22 µM; IC50 at 72 h [7]: > 10 µM
COc1cc(O)c2c(c1)/C=C/C[C@H](OC(C)=O)[C@H](OC(C)=O)C(=O)/C=C\C[C@H](C)OC2=O [Compound 27]	–	< 10	2.83	> 30.7	7.3	3.14	3.85	–	–	5.9	< 1	–
COc1cc(O)c2c(c1)/C=C/C[C@H](O)[C@H](O)[C@@H](O)CCC[C@H](C)OC2=O [Paecilomycin E, paecilomycin E]	–	–	–	–	–	–	–	–	–	–	–	IC50 (P. falciparum lines Dd2): 8.8 µM; IC50 (P. falciparum lines 3D7): 20 nM
COc1cc(O)c2c(c1)/C=C/C[C@H](O)[C@H](O)[C@H](O)CCC[C@H](C)OC2=O [Paecilomycin F, paecilomycin F]	–	–	–	–	–	–	–	–	–	–	–	IC50 (P. falciparum lines Dd2): 1.7 µM; IC50 (P. falciparum lines 3D7): 1100 nM
